Assay results published in patent US20070219212A1, “Pyranouidole Derivatives and the Use Thereof for the Treatment of Hepatitis C Virus Infection or Disease” (priority 2004, published 2007).
Read-outs that look alike come from different tables or passages of the source.

How the values were obtained:
[1] = target: T1, NS5B from the BK strain (genotype 1b) (Hepatitis C virus genotype 1b, UniProt P26663); test: Hepatitis C polymerase (NS5B, BK strain) inhibition, radioactive filter assay; type: biochemical; details: NS5B BK strain (genotype 1b)
T1 construct: NS5B from the BK strain (genotype 1b) is expressed in E coli as a protein in which the 21 C-terminal amino acids are replaced; made in house; host or cells: E. coli
T1 sequence (P26663 2420-2989): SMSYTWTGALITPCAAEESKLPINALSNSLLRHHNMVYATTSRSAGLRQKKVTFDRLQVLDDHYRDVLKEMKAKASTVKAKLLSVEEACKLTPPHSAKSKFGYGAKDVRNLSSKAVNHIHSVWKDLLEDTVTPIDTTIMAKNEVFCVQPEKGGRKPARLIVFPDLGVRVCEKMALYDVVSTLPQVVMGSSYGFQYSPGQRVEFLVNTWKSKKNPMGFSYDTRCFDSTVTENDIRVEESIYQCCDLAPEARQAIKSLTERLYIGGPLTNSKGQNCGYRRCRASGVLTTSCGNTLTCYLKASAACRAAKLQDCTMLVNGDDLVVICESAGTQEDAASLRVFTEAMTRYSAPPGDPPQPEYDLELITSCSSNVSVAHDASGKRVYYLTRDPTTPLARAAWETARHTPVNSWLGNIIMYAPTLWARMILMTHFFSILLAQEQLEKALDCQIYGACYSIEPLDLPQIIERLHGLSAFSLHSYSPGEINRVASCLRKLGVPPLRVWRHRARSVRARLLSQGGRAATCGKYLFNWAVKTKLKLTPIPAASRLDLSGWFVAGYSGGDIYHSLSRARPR
Source text: (§1) The ability of the compounds of the present invention to inhibit Hepatitis C Polymerase was established by the following experimental procedure:
NS5B from the BK strain (genotype 1b) is expressed in E coli as a protein in which the 21 C-terminal amino acids are replaced with a short linker and a hexahistidine tag ([…]). The purified protein is mixed with radioactive nucleotides and allowed to replicate a heteropolymeric RNA substrate, primed by an endogenous short hairpin, resulting in an approximately 760 nt product. The radioactive product is captured on a filter and quantitated after removal of the unincorporated nucleotides.
(§2) • 0.5M Na Phosphate buffer. Per liter, weigh 134 gr Na2HPO4.7H2O, add water to 900 ml. Adjust pH to 7.0 with phosphoric acid. Top off with water to 1 L. • Dilute nucleotides 1:1000 to 10 μM (GTP and CTP) or 1:100 to 100 μM (ATP and UTP) into RNase free water. Procedure: • (1) Compounds 10 μl at […] in 15% dimethylsulfoxide (DMSO) When starting from 100 μg/ml compound stock in 1% DMSO: Dispense 5 μl 30% DMSO per well Dispense 5 μl compound (100 μg/ml) per well. When starting from 50 μg/ml compound stock in 15% DMSO: Add 10 μl compound per well.
(§3) Add 20 μl enzyme mix into each well of the assay plate. Incubate compound and enzyme at room temperature for 15 minutes • (3) Template mix—prepare ahead
(§4) Spin down a tube of RNA (5 μg/tube stored in 75% ethanol and 0.3 M sodium acetate) in a microcentrifuge for 20 minutes at 4° C. One tube is enough for 1-1.5 plates. Remove as much ethanol from the tube as possible by inverting the tube. Be gentle, pellet RNA may not adhere to the tube. Vacuum dry the RNA. Resuspend the RNA by adding 1 ml of DEPC water, close the cap of the tube tightly. To dissolve RNA, incubate RNA solution on ice for ˜60 minutes and gently vortex. Spin briefly to ensure all RNA solution is down to the bottom of the tube before opening cap. Gently transfer RNA solution into a 5 ml or larger tube. Add another 3 ml of DEPC water (total 4 ml of volume).
(§5) Add the following volumes of reagents
(§6) Add 20 μl template mix per reaction (i.e. 20 ng of pOF per reaction or ˜3 nM) • (4) Incubate reaction at room temperature (22-25° C.) for 2 hours. • (5) Stop reaction by adding 50 μl of 170 mM EDTA.
(§7) Final concentration of EDTA is 85 mM. • (6) Prewet filters of Millipore multiscreen assay plate by adding 200 μl of 0.5 M sodium phosphate buffer, pH 7.0 into each well. Let stand at room temperature for 2-3 minutes. • (7) Place the multiscreen filter plate onto a Millipore Manifold and turn on vacuum to allow buffer to flow through. Turn off vacuum. Transfer 80 μl of the reaction product into each well of the filter plate. Let stand for 2-3 minutes. Turn on vacuum to filter reaction product. • (8) Turn off vacuum. Add 200 μl of 0.5 M sodium phosphate buffer, pH 7.0 into each well to wash filter. Turn on vacuum.
(§8) Repeat step (8) three more times. • (9) Remove polypropylene bottom. Spot dry filter at the bottom with paper towel. Air dry filter plate on a bench for 1 hour. Add 40 μl Super Mix scintillant. Seal top of the plate with a tape. Place plate into a Packard carrier or micro-beta carrier. • (10) Count plate using a Packard Topcount or micro-beta counter. Count (for example using Program 10) for ^33P in Top count or ^33P program in micro-beta.
(§9) See, Ferrari et al. 1999. J. Virology 73:1649-1654: “Characterization of soluble Hepatitis C virus RNA-dependent RNA polymerase expressed in E. coli and Takamizawa et al. 1991” and J. Virology 65:1105-1113: “Structure and characterization of the Hepatitis C virus genome isolated from human carriers,” both references are hereby incorporated by reference.

[2] = target: BB7 RNA-dependent RNA polymerase hepatitis C virus protein (Con1 HCV sequence) (Hepatitis C virus genotype 1b, UniProt Q9WMX2); test: Hepatitis C polymerase (BB7) inhibition; type: biochemical
BB7 RNA-dependent RNA polymerase hepatitis C virus protein (Con1 HCV sequence), sequence (Q9WMX2 2420-3010): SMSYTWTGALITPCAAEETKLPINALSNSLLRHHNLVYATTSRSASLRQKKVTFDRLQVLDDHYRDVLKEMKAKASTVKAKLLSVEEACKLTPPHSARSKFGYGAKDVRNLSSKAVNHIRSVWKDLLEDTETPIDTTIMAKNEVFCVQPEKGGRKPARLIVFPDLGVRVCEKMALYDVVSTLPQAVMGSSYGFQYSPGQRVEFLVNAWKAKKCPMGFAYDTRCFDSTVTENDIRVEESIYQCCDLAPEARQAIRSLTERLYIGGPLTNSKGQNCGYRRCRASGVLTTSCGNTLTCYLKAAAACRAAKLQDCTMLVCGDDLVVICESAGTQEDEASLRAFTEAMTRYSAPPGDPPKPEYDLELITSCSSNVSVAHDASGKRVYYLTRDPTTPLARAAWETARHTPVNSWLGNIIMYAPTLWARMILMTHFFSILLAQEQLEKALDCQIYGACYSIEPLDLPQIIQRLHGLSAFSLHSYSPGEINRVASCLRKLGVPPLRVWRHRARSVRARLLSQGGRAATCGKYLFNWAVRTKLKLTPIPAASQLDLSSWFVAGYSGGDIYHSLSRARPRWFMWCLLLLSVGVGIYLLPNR
Source text: For purposes of this invention, the term “BB7” denotes an RNA-dependent RNA polymerase hepatitis C virus protein sequence which is derived from HCV replicon. A discussion of BB7 and related technology can be found in Blight, K. et al. (2000) Science 290:1972-1974. BB7 can be licensed from Apath, LLC (893 North Warson Road, Saint Louis Mo. 63141, USA). BB7 is also referred to as Con1 HCV sequence and discussions of Con1 can be found in the following references: Lohmann, V. et al. (1999) Science 285:110-113; Pietschmann, T. et al. (2001) J. Virol. […]:1252-1264; Lohmann, V. et al. (2001) J. Virol. 75:1437-1449.
as §1, §2, §3, §4, §5, §6, §7, §8, §9

SMILES: CCCC1(CC(=O)O)OCCc2c1[nH]c1c(C)c(COc3ccccc3)cc(C#N)c21 (centres unmarked) [Example 20, (5-Cyano-8-methyl-7-phenoxymethyl-1-propyl-1,3,4,9-tetrahydro-pyrano[3,4-b]indol-1-yl)-acetic acid]
- IC50 [1]: 500 to 5000 nM
- IC50 [2]: 500 to 5000 nM

SMILES: CCCC1(CC(=O)O)OCCc2c1[nH]c1c(C)c(COc3cccc(F)c3)cc(C#N)c21 (centres unmarked) [Example 21, [5-Cyano-7-(3-fluoro-phenoxymethyl)-8-methyl-1-propyl-1,3,4,9-tetrahydro-pyrano[3,4-b]indol-1-yl]-acetic acid]
- IC50 [1]: < 500 nM
- IC50 [2]: < 500 nM

SMILES: CCCC1(CC(=O)O)OCCc2c1[nH]c1c(C)c(OCC3CC3)cc(C#N)c21 (centres unmarked) [Example 22, (5-Cyano-7-cyclopropylmethoxy-8-methyl-1-propyl-1,3,4,9-tetrahydro-pyrano[3,4-b]indol-1-yl)-acetic acid]
- IC50 [1]: < 500 nM
- IC50 [2]: < 500 nM

SMILES: CCC[C@]1(CC(=O)O)OCCc2c1[nH]c1c(C)c(OCc3cc(C)on3)cc(C#N)c21 [Example 23, (R)-[5-Cyano-8-methyl-7-(5-methyl-isoxazol-3-ylmethoxy)-1-propyl-1,3,4,9-tetrahydro-pyrano[3,4-b]indol-1-yl]-acetic acid]
- IC50 [1]: < 500 nM
- IC50 [2]: < 500 nM

SMILES: CCCC1(CC(=O)O)OCCc2c1[nH]c1c(C)c(OCc3ccncc3)cc(C#N)c21 (centres unmarked) [Example 24, [5-Cyano-8-methyl-1-propyl-7-(pyridin-4-ylmethoxy)-1,3,4,9-tetrahydro-pyrano[3,4-b]indol-1-yl]-acetic acid]
- IC50 [1]: < 500 nM
- IC50 [2]: < 500 nM

SMILES: CCC[C@]1(CC(=O)O)OCCc2c1[nH]c1c(C)c(OCc3cc(C)n(C)n3)cc(C#N)c21 [Example 25, (R)-[5-Cyano-7-(1,5-dimethyl-1H-pyrazol-3-ylmethoxy)-8-methyl-1-propyl-1,3,4,9-tetrahydro-pyrano[3,4-b]indol-1-yl]-acetic acid]
- IC50 [1]: < 500 nM
- IC50 [2]: < 500 nM

SMILES: CCC[C@]1(CC(=O)O)OCCc2c1[nH]c1c(C)c(OCCOC(C)C)cc(C#N)c21 [Example 26, (R)-[5-Cyano-7-(2-isopropoxy-ethoxy)-8-methyl-1-propyl-1,3,4,9-tetrahydro-pyrano[3,4-b]indol-1-yl]-acetic acid]
- IC50 [1]: < 500 nM
- IC50 [2]: < 500 nM

SMILES: CCC[C@]1(CC(=O)O)OCCc2c1[nH]c1c(C)c(OCCCOC)cc(C#N)c21 [Example 27, (R)-[5-Cyano-7-(3-methoxy-propoxy)-8-methyl-1-propyl-1,3,4,9-tetrahydro-pyrano[3,4-b]indol-1-yl]-acetic acid]
- IC50 [1]: < 500 nM
- IC50 [2]: < 500 nM

SMILES: CCC[C@]1(CC(=O)O)OCCc2c1[nH]c1c(C)c(OC[C@@H](C)OC)cc(C#N)c21 [Example 28, (1R,2′R)-[5-Cyano-7-(2-methoxy-propoxy)-8-methyl-1-propyl-1,3,4,9-tetrahydro-pyrano[3,4-b]indol-1-yl]-acetic acid]
- IC50 [1]: < 500 nM
- IC50 [2]: < 500 nM

SMILES: CCC[C@]1(CC(=O)O)OCCc2c1[nH]c1c(C)c(OCc3nnc(C)s3)cc(C#N)c21 [Example 29, (R)-[5-Cyano-8-methyl-7-(5-methyl-[1,3,4]thiadiazol-2-ylmethoxy)-1-propyl-1,3,4,9-tetrahydro-pyrano[3,4-b]indol-1-yl]-acetic acid]
- IC50 [1]: < 500 nM
- IC50 [2]: < 500 nM

SMILES: CCC[C@]1(CC(=O)O)OCCc2c1[nH]c1c(C)c(OCc3nsc(N(C)C)n3)cc(C#N)c21 [Example 30, (R)-[5-Cyano-7-(5-dimethylamino-[1,2,4]thiadiazol-3-ylmethoxy)-8-methyl-1-propyl-1,3,4,9-tetrahydro-pyrano[3,4-b]indol-1-yl]-acetic acid]
- IC50 [1]: < 500 nM
- IC50 [2]: < 500 nM

SMILES: CCCC1(C(=O)O)OCCc2c1[nH]c1c(C)c(OCCOC)cc(C#N)c21 (centres unmarked) [Example 31, 5-Cyano-7-(2-methoxy-ethoxy)-8-methyl-1-propyl-1,3,4,9-tetrahydro-pyrano[3,4,-b]indole-1-carboxylic acid]
- IC50 [1]: 500 to 5000 nM
- IC50 [2]: 500 to 5000 nM

SMILES: CCCC1(C(=O)O)OCCc2c1[nH]c1c(C)c(OCc3cc(C)on3)cc(C#N)c21 (centres unmarked) [Example 32, 5-Cyano-8-methyl-7-(5-methyl-isoxazol-3-ylmethoxy)-1-propyl-1,3,4,9-tetrahydro-pyrano[3,4,-b]indole-1-carboxylic acid]
- IC50 [1]: < 500 nM
- IC50 [2]: < 500 nM

SMILES: CCC(C)C1(CC(=O)O)OCCc2c1[nH]c1c(C)c(OCc3cc(C)n(C)n3)cc(C#N)c21 [Example 36, (1R*,10S)-[1-sec-Butyl-5-cyano-7-(1,5-dimethyl-1H-pyrazol-3-ylmethoxy)-8-methyl-1,3,4,9-tetrahydro-pyrano[3,4-b]indol-1-yl]-acetic acid]
- IC50 [1]: < 500 nM
- IC50 [2]: < 500 nM

SMILES: CCCC1(C(=O)O)OCCc2c1[nH]c1c(C)c(OCc3ccncc3)cc(C#N)c21 (centres unmarked) [Example 37]
- IC50 [1]: < 500 nM
- IC50 [2]: < 500 nM

SMILES: CCCC1(CC(=O)O)OCCc2c1[nH]c1c(C)c(OCc3ccncc3)cc(C#N)c21 (centres unmarked) [Example 38]
- IC50 [1]: < 500 nM
- IC50 ([2]; read-out: BB7 IC50, BB7 (Con1) NS5B): < 500 nM

SMILES: CCCC1(CC(=O)O)OCCc2c1[nH]c1c(C)c(O[C@@H]3CCOC3)cc(C#N)c21 (some centres unmarked) [Example 39]
- IC50 [1]: < 500 nM
- IC50 ([2]; BB7 (Con1) NS5B, read-out: BB7 IC50): < 500 nM

SMILES: CCCC1(CC(=O)O)OCCc2c1[nH]c1c(C)c(O[C@H]3CCOC3)cc(C#N)c21 (some centres unmarked) [Example 40]
- IC50 [1]: < 500 nM
- IC50 [2]: < 500 nM

SMILES: CCCC1(CC(=O)O)OCCc2c1[nH]c1c(C)c(OCc3cccnc3)cc(C#N)c21 (centres unmarked) [Example 41]
- IC50 [1]: < 500 nM
- IC50 [2]: < 500 nM

SMILES: CCCC1(CC(=O)O)OCCc2c1[nH]c1c(C)c(O[C@@H]3CCNC3)cc(C#N)c21 (some centres unmarked) [Example 42]
- IC50 [1]: < 500 nM
- IC50 [2]: 500 to 5000 nM

SMILES: CCCC1(CC(=O)O)OCCc2c1[nH]c1c(C)c(OCCOC)cc(C#N)c21 (centres unmarked) [Example 43]
- IC50 [1]: < 500 nM
- IC50 [2]: < 500 nM

SMILES: CCC[C@]1(CC(=O)O)OCCc2c1[nH]c1c(C)c(OCCOC)cc(C#N)c21 [Example 44]
- IC50 [1]: < 500 nM
- IC50 [2]: < 500 nM

SMILES: CCCC1(CC(=O)O)OCCc2c1[nH]c1c(C)c(O)cc(C#N)c21 (centres unmarked) [Example 45]
- IC50 [1]: < 500 nM
- IC50 [2]: < 500 nM

SMILES: CCC[C@]1(CC(=O)O)OCCc2c1[nH]c1c(C)c(O)cc(C#N)c21 [Example 46]
- IC50 [1]: < 500 nM
- IC50 [2]: < 500 nM

SMILES: CCC[C@@]1(CC(=O)O)OCCc2c1[nH]c1c(C)c(O)cc(C#N)c21 [Example 47]
- IC50 [1]: > 5000 nM
- IC50 [2]: 500 to 5000 nM

SMILES: CCCC1(CC(=O)O)OCCc2c1[nH]c1c(C)c(OCCC3CC3)cc(C#N)c21 (centres unmarked) [Example 48]
- IC50 [1]: < 500 nM
- IC50 [2]: < 500 nM

SMILES: CCCC1(CC(=O)O)OCCc2c1[nH]c1c(C)c(OCc3ccccn3)cc(C#N)c21 (centres unmarked) [Example 49]
- IC50 [1]: < 500 nM
- IC50 [2]: < 500 nM

SMILES: CCCC1(CC(=O)O)OCCc2c1[nH]c1c(C)c(OCCSC)cc(C#N)c21 (centres unmarked) [Example 50]
- IC50 [1]: < 500 nM
- IC50 [2]: < 500 nM
